From ChEMBL document CHEMBL1134999, “Synthesis and cytotoxic activity of a new potent daunomycinone derivative” (Bioorg Med Chem Lett, 2002)

Columns and labels:
L1210 = experiment: In vitro cytotoxic activity was evaluated using the murine leukemia L1210 cell line; format: functional, cell-based; details: Mus musculus
MES-SA [1] = experiment: In vitro cytotoxic activity was evaluated using the MES-SA multidrug-resistant subline MES-SA/Dx5; format: functional, cell-based; details: Homo sapiens
KB [2] = experiment: Resistance factor (RF), ratio between the IC50 on the resistant cells and the IC50 on the corresponding sensitive cells of KB cell line; format: functional, Homo sapiens
SK-MES-1 = experiment: Resistance factor (RF), ratio between the IC50 on the resistant cells and the IC50 on the corresponding sensitive cells of MES cell line; format: functional, Homo sapiens
MES-SA [3] = experiment: In vitro cytotoxic activity was evaluated using the human uterine sarcoma cell line MES-SA; format: functional, cell-based
KB [4] = experiment: In vitro cytotoxic activity was evaluated using the KB-3-1 resistant to adriamycin (ADR) subline KB-A1; format: functional, cell-based; details: Homo sapiens
KB 3-1 = experiment: In vitro cytotoxic activity was evaluated using the human epidermoid carcinoma cell line KB-3-1; format: functional, cell-based

Compound	IC50 (L1210) [nM]	IC50 (MES-SA [1]) [nM]	Resistance factor (KB [2])	Resistance factor (SK-MES-1)	IC50 (MES-SA [3]) [nM]	IC50 (KB [4]) [nM]	IC50 (KB 3-1) [nM]
COc1cccc2c1C(=O)c1c(O)c3c(c(O)c1C2=O)C[C@@](O)(C(C)=O)C[C@@H]3O[C@H]1C[C@H](N)[C@H](O)[C@H](C)O1 [DAUNORUBICIN]	40	3000	295.7	42.8	70		
COc1cccc2c1C(=O)c1c(O)c3c(c(O)c1C2=O)C[C@@](O)(C(=O)CO)C[C@@H]3O[C@H]1C[C@H](N)[C@H](O)[C@H](C)O1 [DOXORUBICIN]	25	12000	333.8	48	250		
COc1cccc2c1C(=O)c1c(O)c3c(c(O)c1C2=O)C[C@@](O)(C(C)=O)C[C@@H]3OC1CC(Br)C(N=[N+]=[N-])C(C)O1 (some centres not stated)	500	2000	1.1	0.28	7000	900	800
